Results from PubChem BioAssay (NCI).
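Results reflect a 48-hour exposure of cells in 96-well plates to compound at five concentrations. The concentration for full growth arrest is given as TGI.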

Experiments:
Test in all cases: NCI tumour cell line growth inhibition, 48 h
[1] = system: SN12K1 renal
[2] = system: P388/ADR leukemia
[3] = system: P388 leukemia

Measured: TGI

CSc1nc(NC2OCC(O)C(O)C2O)c(N)c(=O)[nH]1 (stereo not drawn)
> 100 µM: [1] | [2] | [3]
